Test results reported in patent US10945427B2, “Trehalose and dextran-containing solution for transplanting mammalian cells” (OTSUKA PHARMACEUTICAL FACTORY, INC., priority 2013, dated 2021).

What follows are compounds tested on Human mesenchymal stem cells from bone marrow [hMSC-BM] (assay: Cell survival rate of hMSC-BM preserved in solution for cell transplantation (Trypan blue)). Settings: hMSC-BM preserved for 14 days; saccharide-containing Lactec injection without trehalose or dextran.
Assay type: cell-based
Procedure: Human mesenchymal stem cells from bone marrow [hMSC-BM] (from Lonza Co., Ltd.) were prepared according the procedures described in [1] to [8] below and used in the present experiment.
[1] hMSC-BM were cultured in a 5% CO2 incubator at 37° C. in the presence of a medium kit specific for human mesenchymal stem cells (from Lonza Co., Ltd.) (hereinafter referred to as “MSC medium”) using a 75-cm^2 flask. The state of the cells was observed under a microscope, and culture was performed until a confluent state of about 80% was reached.
[2] The […] was removed using an aspirator, and hMSC-BM were rinsed with 8 mL/flask of PBS (from Invitrogen Co., Ltd.).
[4] Swing was carried out in a slow manner while hMSC-BM were observed under a microscope until about 90% thereof were detached.
Centrifugation was carried out at 600×g and 25° C. for 5 minutes.
[7] The MSC medium as the supernatant was removed using an aspirator, and 4 mL/flask of PBS (from Invitrogen Co., Ltd.) was added, followed by suspending an hMSC-BM pellet (precipitate).
[8] 10 μL of the hMSC-BM suspension was taken; the number of the cells was measured using a cell counter; and PBS (from Invitrogen Co., Ltd.) was added thereto to 5×10^5 cells/mL, which was then cooled with ice.
[1] The hMSC-BM suspension prepared in the step [7] of the “1-1-3 Preparation of Mammalian Cell” described above was dispensed into a 15-mL conical centrifuge tube using […] (100 to 1,000 μL) and centrifuged at 600×g and 25° C. for 5 minutes.
[2] The supernatant after centrifugation treatment was aspirated/removed, and the resultant was suspended in each of the 11 solutions for cell transplantation and then preserved in a refrigerator (under conditions of 4° C.) for […]. To measure the cell survival rate before preservation, the supernatant after centrifugation treatment was aspirated/removed, and the resultant was then suspended in PBS (from Invitrogen Co., Ltd.), immediately followed by taking a portion (20 μL) of the suspension, mixing the portion with 20 μL of Trypan blue stain solution (from Gibco Co., Ltd.), and then measuring the total number of the cells and the number of dead cells using a cell counter under a microscope to evaluate the rate of living cells (see “P” in FIG. 1).
[3] After preserving hMSC-BM in the solution for cell transplantation for 14 days, stirring (5 times pipetting at a liquid volume of 500 μL) was gently performed in a state in which the end of a tip was inserted to a position visually at on the order of 5 mm from the bottom to make cells in a suspended state, and a portion (20 μL) of the suspension was taken into a 1.5-mL microtube, mixed with 20 μL of Trypan blue stain solution (from Gibco Co., Ltd.), and then measured for the total number of the cells and the number of dead cells using a cell counter under a microscope to evaluate the rate of living cells.
With `OC[C@H]1O[C@H](OC[C@H]2O[C@H](O[C@]3(CO)O[C@H](CO)[C@@H](O)[C@@H]3O)[C@H](O)[C@@H](O)[C@@H]2O)[C@H](O)[C@@H](O)[C@H]1O` [raffinose] the “effect of saccharide used alone on cell death, FIG. 7” value (“effect of saccharide used alone” below) was “had not the effect of suppressing cell death”. `OC[C@@H](O)[C@@H](O)[C@H](O)[C@@H](O)CO` [sorbitol] was tested, and the “effect of saccharide used alone” value was “had not the effect of suppressing cell death”. `OC[C@H]1O[C@@H](O[C@H]2[C@H](O)[C@@H](O)C(O)O[C@@H]2CO)[C@H](O)[C@@H](O)[C@H]1O` (stereo partly drawn) [lactose] was tested, and the “effect of saccharide used alone” value was “had not the effect of suppressing cell death”. In the case of `OC[C@H]1O[C@H](O[C@H]2[C@H](O)[C@@H](O)[C@H](O)O[C@@H]2CO)[C@H](O)[C@@H](O)[C@@H]1O` [maltose], the “effect of saccharide used alone” value is reported as “had not the effect of suppressing cell death”. In the case of `OC[C@@H](O)[C@@H](O)[C@H](O)[C@H](O)CO` [mannitol], the “effect of saccharide used alone” value is reported as “had not the effect of suppressing cell death”. With `OC[C@H]1O[C@@](CO)(O[C@H]2O[C@H](CO)[C@@H](O)[C@H](O)[C@H]2O)[C@@H](O)[C@@H]1O` [sucrose] the “effect of saccharide used alone” value was “had not the effect of suppressing cell death”.
